Data from US20170151264A1, “COMBINATION” (Almirall, S.A., priority 2014, published 2017).

Legend:
[1] = test system: neutrophils, eosinophils and lymphocytes in bronchoalveolar fluid (BALF); test: House dust mite induced asthma model; assay type: in vivo, Mouse
[2] = test system: Concanavalin A induced plasma interleukin-2 (IL-2) release; test: Concanavalin A induced plasma IL-2 release in rats; assay type: in vivo, Wistar rats; details: for reduction in IL2 production versus vehicle-treated con A-induced rats: LAS191954 0.1 mg/kg and/or dexamethasone 0.03 mg/kg, 1 h before con A, IL2 at 90 min; for plasma levels alone versus in combination: LAS191954 0.1 mg/kg, dexamethasone 0.03 mg/kg, rat
neutrophils in BALF = test: Cigarette smoke model; assay type: in vivo, Mouse; details: LAS191954 1 mg/kg and/or dexamethasone 0.3 mg/kg
[3] = test system: 273 protein and lipid kinases; test: General selectivity kinase panel (Millipore, Invitrogen and ProQinase); assay type: biochemical; details: 10 μM
[4] = test system: autoantibody-mediated cutaneous lesions; test: Immunization-induced mouse model of epidermolysis bullosa acquista (EBA); assay type: in vivo, B6.SJL-H2s mice; details: 6 week treatment; for body weight gain: LAS191954 3 mg/kg/day or methylprednisolone 20 mg/kg/day orally
Description: Induction of experimental EBA was performed as described in Iwata H, Bieber K, Tiburzy B et al., J Immunol. 2013; 191:2978-2988. Briefly, 6-10 week B6.SJL-H2s mice were immunized with an emulsion of a recombinant protein encompassing the vWFA2 binding domain of mouse type VII collagen (COL7) in adjuvant (Titermax). After immunization, mice were weekly evaluated for the presence and extend of clinical disease, measured as percentage of body surface affected by skin lesions (erythema, blisters, erosions and crusts).
Treatments were carried out over a 6-week period, and mice were evaluated for the extend of clinical disease (primary endpoint) weekly. Clinical manifestations were scored 0 to 5, corresponding to 0%, <1%, ≧1% to <5%, ≧5% to <10%, ≧10% to <20% of body surface area affected, respectively. Area under Curve (AUC) was calculated from the score at inclusion, 1, 2, 3, 4, 5 and 6 weeks after allocation to treatment. For better comparability between experiments, the affected body surface area at weeks 1-6 was related to that at inclusion (set at 1).
Body weight was monitored weekly during treatment.

PI3Kδ [5] = biological target: T1, PI3Kδ (Homo sapiens, UniProt O00329); test: M-CSF-induced AKT phosphorylation in THP-1 cells; assay type: cell-based; details: THP-1, M-CSF stimulus, phosphorylated AKT
Target sequence in this assay (O00329 whole entry, canonical isoform): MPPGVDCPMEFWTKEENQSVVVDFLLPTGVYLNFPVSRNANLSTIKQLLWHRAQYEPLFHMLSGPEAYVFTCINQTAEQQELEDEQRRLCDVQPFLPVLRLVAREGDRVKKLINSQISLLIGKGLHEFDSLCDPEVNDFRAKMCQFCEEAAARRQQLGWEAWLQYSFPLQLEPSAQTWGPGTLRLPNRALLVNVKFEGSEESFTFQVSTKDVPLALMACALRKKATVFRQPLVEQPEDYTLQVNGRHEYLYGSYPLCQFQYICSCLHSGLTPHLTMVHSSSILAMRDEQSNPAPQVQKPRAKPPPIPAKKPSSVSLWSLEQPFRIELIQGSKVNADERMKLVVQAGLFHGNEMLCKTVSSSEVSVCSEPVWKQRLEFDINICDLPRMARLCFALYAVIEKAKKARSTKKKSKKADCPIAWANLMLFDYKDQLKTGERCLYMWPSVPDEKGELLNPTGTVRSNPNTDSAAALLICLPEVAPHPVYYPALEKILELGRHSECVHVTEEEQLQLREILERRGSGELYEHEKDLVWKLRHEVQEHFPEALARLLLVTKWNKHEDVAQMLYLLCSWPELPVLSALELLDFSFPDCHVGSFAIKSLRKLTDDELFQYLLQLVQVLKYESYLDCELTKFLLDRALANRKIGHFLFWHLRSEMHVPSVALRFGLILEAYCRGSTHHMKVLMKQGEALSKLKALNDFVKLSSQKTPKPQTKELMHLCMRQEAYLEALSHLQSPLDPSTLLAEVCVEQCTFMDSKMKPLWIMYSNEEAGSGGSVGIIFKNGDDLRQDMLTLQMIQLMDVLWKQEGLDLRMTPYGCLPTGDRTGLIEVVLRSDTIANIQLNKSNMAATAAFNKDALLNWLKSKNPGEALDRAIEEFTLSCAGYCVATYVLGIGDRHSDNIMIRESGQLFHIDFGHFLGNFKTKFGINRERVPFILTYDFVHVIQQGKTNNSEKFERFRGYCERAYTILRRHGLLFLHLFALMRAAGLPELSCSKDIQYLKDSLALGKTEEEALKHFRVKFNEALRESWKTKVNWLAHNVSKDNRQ
Target sequence in this assay (P27986 whole entry partner, canonical isoform): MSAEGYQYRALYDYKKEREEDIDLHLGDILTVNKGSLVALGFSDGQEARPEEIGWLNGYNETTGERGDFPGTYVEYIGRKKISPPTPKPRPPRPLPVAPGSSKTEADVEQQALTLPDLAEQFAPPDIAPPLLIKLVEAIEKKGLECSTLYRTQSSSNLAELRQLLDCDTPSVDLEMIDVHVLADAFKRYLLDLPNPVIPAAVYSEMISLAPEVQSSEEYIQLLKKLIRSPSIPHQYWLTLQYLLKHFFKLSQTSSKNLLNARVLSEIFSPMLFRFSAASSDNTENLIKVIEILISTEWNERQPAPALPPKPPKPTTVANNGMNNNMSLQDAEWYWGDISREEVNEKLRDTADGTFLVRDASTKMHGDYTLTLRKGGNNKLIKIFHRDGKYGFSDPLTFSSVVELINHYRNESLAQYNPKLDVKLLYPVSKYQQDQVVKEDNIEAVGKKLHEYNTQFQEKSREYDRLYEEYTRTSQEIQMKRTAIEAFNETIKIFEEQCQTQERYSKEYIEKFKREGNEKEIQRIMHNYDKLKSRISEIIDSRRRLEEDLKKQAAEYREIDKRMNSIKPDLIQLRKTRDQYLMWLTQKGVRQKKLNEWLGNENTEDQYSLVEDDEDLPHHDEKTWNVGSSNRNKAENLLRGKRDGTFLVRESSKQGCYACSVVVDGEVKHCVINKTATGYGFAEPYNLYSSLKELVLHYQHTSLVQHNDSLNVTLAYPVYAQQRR

PI3K p110γ = PI3K p110γ (Homo sapiens, UniProt P48736); details: recombinant human isoform, pre-incubation 30 min
CHO cells = details: highest tested concentration of 100 μM, 24 h
PI3Kδ [6] = biological target: T1, PI3Kδ; test: Immune complex-induced ROS release in human neutrophils; assay type: cell-based; details: immune complexes
Target sequence in this assay (O00329 whole entry, canonical isoform): as the sequence (O00329 whole entry, canonical isoform) above
Target sequence in this assay (P27986 2-724 partner limits assumed): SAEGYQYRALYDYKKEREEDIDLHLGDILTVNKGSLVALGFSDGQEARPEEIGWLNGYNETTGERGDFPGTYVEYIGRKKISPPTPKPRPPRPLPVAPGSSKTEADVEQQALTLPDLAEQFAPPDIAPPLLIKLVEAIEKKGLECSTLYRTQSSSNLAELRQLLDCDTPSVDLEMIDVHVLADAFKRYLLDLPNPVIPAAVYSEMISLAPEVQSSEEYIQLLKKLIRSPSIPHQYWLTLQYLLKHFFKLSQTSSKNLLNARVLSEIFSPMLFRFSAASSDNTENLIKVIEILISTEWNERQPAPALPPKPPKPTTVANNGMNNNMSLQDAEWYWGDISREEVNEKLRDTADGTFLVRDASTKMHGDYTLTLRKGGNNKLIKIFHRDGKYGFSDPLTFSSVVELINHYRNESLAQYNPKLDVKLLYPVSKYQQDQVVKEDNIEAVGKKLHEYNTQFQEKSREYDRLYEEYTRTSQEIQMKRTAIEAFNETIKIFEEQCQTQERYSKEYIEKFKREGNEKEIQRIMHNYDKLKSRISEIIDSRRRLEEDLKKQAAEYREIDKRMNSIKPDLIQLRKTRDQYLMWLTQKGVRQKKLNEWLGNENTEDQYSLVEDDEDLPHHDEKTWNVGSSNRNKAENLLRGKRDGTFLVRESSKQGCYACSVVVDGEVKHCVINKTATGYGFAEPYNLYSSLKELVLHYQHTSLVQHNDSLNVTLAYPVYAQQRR

PI3Kβ = PI3Kβ (Homo sapiens, UniProt P42338); details: HUVEC, S1P stimulus, phosphorylated AKT
[7] = test system: Anti-Dsg3 and anti-dsDNA autoantibody production; test: MRL/lpr spontaneous autoimmune disease model, autoantibody production; assay type: in vivo, MRL/Ipr mouse; details: for Inhibition (%) of Anti Dsg3 total IgG production (Normalized AUCw 12-19) versus Vehicle / Inhibition (%) of Anti dsDNA total IgG production (Normalized AUCw 12-19) versus Vehicle: LAS191954 3 mg/kg or prednisolone 10 mg/kg orally once a day for 6 weeks
Description: The primary endpoint of this study was assessment of autoantibody production, including pemphigus-specific anti-Dsg3 antibodies.
The prednisolone dose was selected based on previous reports and corresponds to a high CS dose in humans.
As autoantibodies develop progressively and may follow a different course in each animal, anti-dsDNA antibody levels were measured on week 12 and used to uniformly distribute animals to dosing groups. At week 13, daily treatments were initiated and continued for 6 weeks. Antibodies to dsDNA and Dsg3 were measured at weeks 12, 15, 17 and 19. Skin lesions were inspected visually throughout the study. Effects on other parameters such as proteinuria, as well as general hematological, serological, and histological signs were evaluated at study completion.

PI3Kδ [8] = biological target: T1, PI3Kδ; test: BCR crosslinking-induced CD69 expression in CD19+ B cells, isolated PBMC; assay type: cell-based; details: Anti-IgD, CD69 surface expression
Target sequence in this assay (O00329 whole entry, canonical isoform): as the sequence (O00329 whole entry, canonical isoform) above
Target sequence in this assay (P27986 whole entry partner, canonical isoform): as the sequence (P27986 whole entry partner, canonical isoform) above

[9] = test system: 81 GPCR receptors, 8 ion channels and 5 transporters; test: General selectivity panel (Cerep); assay type: binding; details: 10 μM
PI3Kδ [10] = biological target: T1, PI3Kδ; test: BCR crosslinking-induced B cell CD69 expression, human whole blood; assay type: cell-based; details: CD19+ cells (human whole blood), B cell CD69 surface expression
Target sequence in this assay (O00329 whole entry, canonical isoform): as the sequence (O00329 whole entry, canonical isoform) above
Target sequence in this assay (P27986 whole entry partner, canonical isoform): as the sequence (P27986 whole entry partner, canonical isoform) above

[11] = test system: secondary IgG antibody responses to KLH; test: Secondary TDAR to KLH in mice; assay type: in vivo
Description: This assay included two immunizations with KLH separated 15 days apart (50 μg KLH/animal, intraperitoneally) and specific IgG anti-KLH levels were measured on day +11 after the second immunization. Administration of test compound (0.3 and 3 mg/kg) started on the day of second immunization (day +1) and then once daily for the next 9 days.

[12] = test system: primary antibody responses to KLH; test: Primary T cell dependent antibody response (TDAR) to KLH in mice; assay type: in vivo
Description: This assay allows a global assessment of the effect of a drug candidate on antigen presentation, helper T lymphocyte function and B lymphocyte dependent antibody production.
In both cases, the administration of the test compound started on the day of sensitization (day +1, KLH 2 mg/mouse, intravenously). […] A possible reason for this discrepancy is that the lymphocyte count of the concurrent vehicle group of the latter study was abnormally lower than usual, which could mask a potential effect of the test compound on this parameter.

[13] = dexamethasone 0.1-10 mg/kg and LAS191954 0.1-10 mg/kg ranges tested, dose of value not stated
[14] = Week 12 (beginning of treatment)

PI3Kβ, sequence (P42338 whole entry): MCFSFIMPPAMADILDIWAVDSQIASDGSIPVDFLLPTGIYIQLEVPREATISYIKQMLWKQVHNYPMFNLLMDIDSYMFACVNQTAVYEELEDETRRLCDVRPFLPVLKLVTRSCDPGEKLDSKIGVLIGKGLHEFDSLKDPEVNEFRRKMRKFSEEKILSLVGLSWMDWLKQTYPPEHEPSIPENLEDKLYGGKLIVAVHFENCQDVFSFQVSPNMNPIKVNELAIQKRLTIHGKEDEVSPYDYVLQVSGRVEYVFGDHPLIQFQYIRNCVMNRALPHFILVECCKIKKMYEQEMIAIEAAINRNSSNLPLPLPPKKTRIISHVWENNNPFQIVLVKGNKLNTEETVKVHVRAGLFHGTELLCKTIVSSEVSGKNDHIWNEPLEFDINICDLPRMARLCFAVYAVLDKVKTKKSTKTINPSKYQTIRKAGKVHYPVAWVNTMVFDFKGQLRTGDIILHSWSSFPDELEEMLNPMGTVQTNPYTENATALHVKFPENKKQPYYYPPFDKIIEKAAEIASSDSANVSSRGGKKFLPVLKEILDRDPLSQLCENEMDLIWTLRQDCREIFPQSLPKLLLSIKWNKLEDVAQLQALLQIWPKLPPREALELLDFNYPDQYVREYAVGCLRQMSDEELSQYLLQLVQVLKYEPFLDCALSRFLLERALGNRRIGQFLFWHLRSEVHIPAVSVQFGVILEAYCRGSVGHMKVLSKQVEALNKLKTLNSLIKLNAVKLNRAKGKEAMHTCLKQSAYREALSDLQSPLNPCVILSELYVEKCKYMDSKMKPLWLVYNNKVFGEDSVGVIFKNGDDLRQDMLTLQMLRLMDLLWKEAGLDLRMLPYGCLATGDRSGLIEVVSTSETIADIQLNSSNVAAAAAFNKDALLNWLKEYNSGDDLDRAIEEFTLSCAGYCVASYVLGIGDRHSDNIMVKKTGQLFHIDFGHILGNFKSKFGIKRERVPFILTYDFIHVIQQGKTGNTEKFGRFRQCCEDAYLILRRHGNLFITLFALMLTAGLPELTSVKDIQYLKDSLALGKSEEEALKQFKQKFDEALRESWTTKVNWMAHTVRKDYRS
PI3Kβ, sequence (P27986 whole entry partner): as the sequence (P27986 whole entry partner, canonical isoform) above
PI3K p110γ, sequence (P48736 whole entry, canonical isoform): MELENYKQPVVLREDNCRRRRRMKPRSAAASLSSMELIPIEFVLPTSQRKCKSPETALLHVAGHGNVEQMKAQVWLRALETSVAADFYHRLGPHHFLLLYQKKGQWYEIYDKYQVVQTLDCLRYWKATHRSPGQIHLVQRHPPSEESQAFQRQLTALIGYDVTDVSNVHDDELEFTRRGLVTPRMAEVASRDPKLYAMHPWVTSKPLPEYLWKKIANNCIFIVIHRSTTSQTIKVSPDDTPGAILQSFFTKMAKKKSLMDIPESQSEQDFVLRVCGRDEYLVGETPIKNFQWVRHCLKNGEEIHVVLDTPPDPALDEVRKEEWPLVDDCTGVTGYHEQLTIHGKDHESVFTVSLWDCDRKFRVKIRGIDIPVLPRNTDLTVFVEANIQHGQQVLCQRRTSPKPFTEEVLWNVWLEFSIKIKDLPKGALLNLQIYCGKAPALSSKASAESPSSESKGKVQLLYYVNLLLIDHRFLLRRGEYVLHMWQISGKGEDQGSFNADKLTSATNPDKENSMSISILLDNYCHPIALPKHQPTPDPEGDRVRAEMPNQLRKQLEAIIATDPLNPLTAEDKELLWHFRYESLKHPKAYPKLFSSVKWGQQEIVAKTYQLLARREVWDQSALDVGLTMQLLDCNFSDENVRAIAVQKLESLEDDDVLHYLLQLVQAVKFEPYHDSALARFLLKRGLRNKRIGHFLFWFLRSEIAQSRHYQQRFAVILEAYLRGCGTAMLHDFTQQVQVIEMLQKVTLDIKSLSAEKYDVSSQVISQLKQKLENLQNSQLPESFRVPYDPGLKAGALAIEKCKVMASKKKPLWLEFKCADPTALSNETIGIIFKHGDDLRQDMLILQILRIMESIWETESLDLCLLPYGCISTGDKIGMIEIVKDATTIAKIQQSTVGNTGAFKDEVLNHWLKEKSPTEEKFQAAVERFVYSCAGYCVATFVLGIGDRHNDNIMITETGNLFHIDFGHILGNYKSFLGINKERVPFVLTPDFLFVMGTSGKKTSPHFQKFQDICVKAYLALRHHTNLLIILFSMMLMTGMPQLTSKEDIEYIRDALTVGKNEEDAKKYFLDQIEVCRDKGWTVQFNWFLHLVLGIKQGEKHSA

In the case of `C[C@@H]1C[C@H]2[C@@H]3CCC4=CC(=O)C=C[C@]4(C)[C@@]3(F)[C@@H](O)C[C@]2(C)[C@@]1(O)C(=O)CO` [Dexamethasone, dexamethasone, reference compound], the “reduction in eosinophils in BALF” value [1, 13] is reported as 58%, the “reduction in lymphocytes in BALF” value [1, 13] is reported as 64% and the “reduction in neutrophils in BALF” value [1, 13] is reported as “only = 53%,”. For the same compound, the “reduction in IL2 production versus vehicle-treated con A-induced rats” value [2] was “only = 42%”, the “reduction in IL2 production versus vehicle-treated con A-induced rats” value ([2]; listed as dexamethasone) was 42% and the “plasma levels alone versus in combination” value [2] was “same levels”. For the same compound, the “reduction in neutrophils in BALF” value (neutrophils in BALF) was “only = 11%”.

In the case of `C[C@H](Nc1ncnc(N)c1C#N)c1nn2ccc(C#N)c2c(=O)n1-c1ccccc1` [LAS191954, (S)-2-(1-(6-amino-5-cyanopyrimidin-4-ylamino)ethyl)-4-oxo-3-phenyl-3,4-dihydropyrrolo[1,2-f][1,2,4]triazine-5-carbonitrile], the “inhibition at single concentration” value [3] is reported as “No inhibition”, the “overall disease activity, AUC of accumulative clinical score versus vehicle” value ([4]; LAS191954 3 mg/kg/day orally) is reported as “significant reduction” and the body weight gain [4] is reported as “not altered”. The IC50 (PI3Kδ [5]) was 7.8 nM, the “effect on eosinophils in BALF (in words)” value ([1]; LAS191954 only) was “only = Modest” and the “effect on lymphocytes in BALF (in words)” value ([1]; LAS191954 only) was “only = Modest”. The “effect on neutrophils in BALF (in words)” value ([1]; LAS191954 only) was “increase in”, the “plasma levels alone versus in combination” value [2] was “same levels” and the ID50 ([2]; single administration, rats) was 0.13 mg/kg. For the same compound, the IC50 (PI3K p110γ) was 71.7 nM, the maximum cell death (CHO cells) was 27% and the IC50 (PI3Kδ [6]) was 11 nM. For the same compound, the IC50 (PI3Kβ) was 295 nM, the “reduction in neutrophils in BALF” value (neutrophils in BALF) was “only = 49%” and the ID50 ([7]; Anti-Dsg3 and anti-dsDNA autoantibody production, repeated administration) was less than 3 mg/kg. For the same compound, the “Absolute Anti-Dsg3 IgG levels (Mean ± SEM)” value [7, 14] was 687 ± 252 U/ml, the “Absolute Anti-dsDNA IgG levels (Mean ± SEM)” value [7, 14] was 370.152 ± 52.401 U/ml and the “Absolute Anti-Dsg3 IgG levels (Mean ± SEM)” value ([7]; Week 19 (end of treatment)) was 450 ± 201 U/ml. The “Absolute Anti-dsDNA IgG levels (Mean ± SEM)” value ([7]; Week 19 (end of treatment)) was 333.806 ± 106.959 U/ml, the “mean decrease in anti-Dsg3 antibody levels below those at the beginning of treatment” value ([7]; week 19 versus week 12, FIG. 3) was 40% and the “reduction of anti-dsDNA antibody titers at the end of treatment” value ([7]; week 19 versus week 12, FIG. 3) was 10%. For the same compound, the IC50 (PI3Kδ [8]) was 4.6 nM, the “inhibition at single concentration” value [9] was “No inhibition” and the IC50 (PI3Kδ [10]; Anti-IgD) was 47 nM. The IC50 (PI3Kδ [10]; Anti-IgM) was 34 nM, the lymphocyte counts ([11]; 0.3 and 3 mg/kg once daily) was “reduced lymphocyte counts” and the ID50 ([11]; secondary IgG anti-KLH, day +11 after second immunization, repeated administration) was less than 0.3 mg/kg. For the same compound, the ID50 ([12]; primary IgG anti-KLH, day +15, 14-day dosing) was 0.17 mg/kg, the lymphocyte count ([12]; primary IgG study, 14-day dosing) was “no apparent effect” and the ID50 ([12]; primary IgM anti-KLH, day +5, repeated daily administration) was 0.12 mg/kg. For the same compound, the WBC counts ([12]; primary IgM study, 4 days daily treatment) was “lower WBC counts” and the “general health status of the animals” value ([12]; primary TDAR, 0.03-10 mg/kg daily) was “without apparent effects”.

With `C[C@H]1C[C@@H]2[C@H]([C@@H](O)C[C@@]3(C)[C@H]2CC[C@]3(O)C(=O)CO)[C@@]2(C)C=CC(=O)C=C12` [Methylprednisolone, reference compound] the body weight gain [4] was “diminished the body weight gain”.

`C[C@]12C=CC(=O)C=C1CC[C@@H]1[C@@H]2[C@@H](O)C[C@@]2(C)[C@H]1CC[C@]2(O)C(=O)CO` [Prednisolone, prednisolone] was tested, and the “Inhibition (%) of Anti Dsg3 total IgG production (Normalized AUCw 12-19) versus Vehicle” value [7] was 49.5 ± 10%, the “Inhibition (%) of Anti dsDNA total IgG production (Normalized AUCw 12-19) versus Vehicle” value [7] was 46.9 ± 10.9% and the “Inhibition (%) of Anti Dsg3 total IgG production (Normalized AUCw 12-19) versus Vehicle” value ([7]; listed as prednisolone) was 49.5%. The “Inhibition (%) of Anti dsDNA total IgG production (Normalized AUCw 12-19) versus Vehicle” value ([7]; listed as prednisolone) was 47%, the “Absolute Anti-Dsg3 IgG levels (Mean ± SEM)” value [7, 14] was 501 ± 188 U/ml and the “Absolute Anti-dsDNA IgG levels (Mean ± SEM)” value [7, 14] was 372.796 ± 56.638 U/ml. For the same compound, the “Absolute Anti-Dsg3 IgG levels (Mean ± SEM)” value ([7]; Week 19 (end of treatment)) was 242 ± 101 U/ml, the “Absolute Anti-dsDNA IgG levels (Mean ± SEM)” value ([7]; Week 19 (end of treatment)) was 933.755 ± 343.424 U/ml and the “change of anti-dsDNA antibody levels at the end of treatment (in words)” value ([7]; week 19 versus week 12, FIG. 3) was “doubled”. For the same compound, the “mean decrease in anti-Dsg3 antibody levels below those at the beginning of treatment” value ([7]; week 19 versus week 12, FIG. 3) was 20%.
